Series [1] is described as follows: gastrointestinal tract simulation system, fasted state, Sporanox solution with or without water. The series is classed as in vitro ADME. The protocol: FIGS. 5A-7B are a series of graphs showing the results of an experiment, simulating fasted state conditions, in which tests are performed in an experimental setup as shown in FIG. 1. […] At the start of the first experimental run, 20 mL of Sporanox® solution (corresponding to a dose of 200 mg itraconazole) was added to the stomach (without water) (Vdose 1=20 mL) whereas at the start of the second run, 20 mL of Sporanox solution was added together with 240 mL of water to the first compartment (with water) (Vdose 2=260 mL). […] Itraconazole concentrations were determined through UHPLC chromatography coupled to UV detection. All experiments were performed in biological triplicate.

The conditions of series [2]: cited from earlier work.
For series [3] the following is noted: cited from earlier work. This is another data set of the same source.

Structures are written as SMILES. Structures can show the parent of a compound that is named as a salt. Where two headings read alike, the source gives them in different places.

`CCC(C)n1ncn(-c2ccc(N3CCN(c4ccc(OCC5COC(Cn6cncn6)(c6ccc(Cl)cc6Cl)O5)cc4)CC3)cc2)c1=O` (centres unmarked) [Itraconazole, itraconazole]: the “area under the curve of the permeated compound” value in series [1] (with versus without water, outer vessel (sink)) was “absence of a substantial difference”. Moreover, the “behaviour of itraconazole in the duodenum” value in series [1] (without water, duodenum pH 6.5) is on record as “precipitation of a fraction of the administered dose”. Besides, in series [2], the aqueous solubility result is “very low aqueous solubility”.

As for `CC(C)(C)NC(=O)[C@@H]1CN(Cc2cccnc2)CCN1C[C@@H](O)C[C@@H](Cc1ccccc1)C(=O)N[C@H]1c2ccccc2C[C@H]1O` [indinavir sulfate], the “AUC of solute concentration in the duodenum” value by setting is: (fed state with carbohydrate solution compared to fasted state) “increased”; (fed state with elevated stomach pH) “decreased substantially”. The results for the “decrease in indinavir bioavailability” value in series [3] (high carbohydrate meal compared to fasted), in series [3] (high fat meal compared to fasted) and in series [3] (high protein meal compared to fasted) were 45%, 34% and 68%, respectively.

These data come from US20240044763A1, “GASTROINTESTINAL TRACT SIMULATION SYSTEM AND METHOD” (ProDigest, priority 2020, published 2024).
